Source: patent US20230203060A1 (GENFLEET THERAPEUTICS (SHANGHAI) INC., priority 2020, published 2023)

Key:
[1] = target: T1, KRAS G12C (Homo sapiens, UniProt P01116, G12C); assay: KRAS G12C NEA-HTRF experiment (SOS1-catalyzed displacement of GDP by GTP); assay type: biochemical
T1 construct: purchased Reactionbiology
How it was run: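 His-tagged KRAS G12C preloaded with DY647-GDP was preincubated 15 min at 20 °C with compound, then exchanged with SOS1 (0.2 μM working solution) and GTP (200 μM working solution) for 2 h at 20 °C in the dark. HTRF 665/615 nm ratio with anti-His-Tb was normalised to T0 and no-compound controls; IC50 by four-parameter fit.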

[2] = system: phosphorylated ERK downstream of KRAS G12C in MIA PaCa2 cells; assay: Cell p-ERK detection experiment (HTRF) in MIA PaCa2; assay type: cell-based, human; details: Homo sapiens, MIA PaCa-2, 2 h, MIA PaCa2 cells, 2 hours with compound, Advance ERK phospho-T202/Y204 HTRF kit; read-out: p-ERK IC50
How it was run: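 KRAS G12C-mutant MIA PaCa2 cells (2.5E4 per well, overnight) exposed 2 h to a 3.16-fold compound dilution series at 0.1% DMSO. Lysates probed 4 h with HTRF antibodies to ERK phospho-T202/Y204; inhibition versus DMSO control and blank, IC50 by four-parameter fit.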

T1 sequence (P01116 1-188 isoform P01116-2 G12C): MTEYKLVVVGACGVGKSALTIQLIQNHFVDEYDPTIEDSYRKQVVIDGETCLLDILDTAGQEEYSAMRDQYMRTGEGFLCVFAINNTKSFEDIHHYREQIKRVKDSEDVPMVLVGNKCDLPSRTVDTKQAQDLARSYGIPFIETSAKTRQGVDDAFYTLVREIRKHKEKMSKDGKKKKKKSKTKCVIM

Structure (SMILES)	IC50 [1] [nM]	IC50 [2] [nM]
C=CC(=O)N1CCN2C(=O)c3c(N4C[C@H](N5CC(C(F)(F)F)C5)CC4(C)C)nc(-c4ccccc4F)c(Cl)c3OC[C@H]2C1 (single isomer, unassigned) [Z608-1]	610	1220
C=CC(=O)N1CCN2C(=O)c3c(N4CCCC45CC5)nc(-c4c(O)cccc4F)c(Cl)c3OC[C@H]2C1 [Z56, (6aR)-8-acryloyl-4-chloro-3-(2-fluoro-6-hydroxyphenyl)-1-(4-azaspiro[2.4]heptan-4-yl)-6,6a,7,8,9,10-hexahydro-12H-pyrazino[2,1-c]pyrido[3,4-f][1,4]oxazepin-12-one]	85	129
C=CC(=O)N1CCN2C(=O)c3c(N4CC(N(C)CC(F)F)CC4(C)C)nc(-c4ccccc4F)c(Cl)c3OCC2C1 (single isomer, unassigned) [Z659-2]	9.3	22
C=CC(=O)N1CCN2C(=O)c3c(N4CCN(C)[C@@H](C)[C@H]4C)nc(-c4ccccc4F)c(Cl)c3OC[C@H]2C1 (single isomer, unassigned) [Z465-1]	144	137
C=CC(=O)N1CCN2C(=O)c3c(N4C[C@@H](N5CC(F)(F)C5)CC4(C)C)nc(-c4ccccc4F)c(Cl)c3OC[C@H]2C1 (single isomer, unassigned) [Z525-2]	38.5	226
C=CC(=O)N1CCN2C(=O)c3c(N4CC(N5CCN(C)CC5)CC4(C)C)nc(-c4ccccc4F)c(Cl)c3OC[C@H]2C1 (stereo partly drawn) [Z454, (6aR)-8-acryloyl-4-chloro-1-(2,2-dimethyl-4-(4-methylpiperazin-1-yl)pyrrolidin-1-yl)-3-(2-fluorophenyl)-6,6a,7,8,9,10-hexahydro-12H-pyrazino[2,1-c]pyrido[3,4-f][1,4]oxazepin-12-one]	19.8	24
C=CC(=O)N1CCN2C(=O)c3c(N4CC[C@H](N(C)C)C4(C)C)nc(-c4ccccc4F)c(Cl)c3OC[C@H]2C1 [Z502-2, (6aR)-8-acryloyl-4-chloro-1-(3-(dimethylamino)-2,2-dimethylpyrrolidin-1-yl)-3-(2-fluorophenyl)-6,6a,7,8,9,10-hexahydro-12H-pyrazino[2,1-c]pyrido[3,4-f][1,4]oxazepin-12(6aH)-one]	160	124
C=CC(=O)N1CCN2C(=O)c3c(N4C[C@@H](N(C)C)CC4(C)C)nc(-c4cccc(C)c4F)c(Cl)c3OC[C@H]2C1 (single isomer, unassigned) [Z472-1]	145	189
C=CC(=O)N1CCN2C(=O)c3c(N4C[C@@H](N5CCN(C)CC5)C[C@@H]4C)nc(-c4ccccc4F)c(Cl)c3OC[C@H]2C1 [Z470-2]	24.7	24
C=CC(=O)N1CCN2C(=O)c3c(N4CC(N(C)C)CC4(C)C)nc(-c4cccc(F)c4F)c(Cl)c3OC[C@H]2C1 (single isomer, unassigned) [Z473-2]	76.8	161
C=CC(=O)N1CCN2C(=O)c3c(N4C[C@@H](N5CC(F)C5)CC4(C)C)nc(-c4ccccc4F)c(Cl)c3OC[C@H]2C1 [Z480-1, (R)-8-acryloyl-4-chloro-1-((S)-4-(3-fluoroazetidin-1-yl)-2,2-dimethylpyrrolidin-1-yl)-3-(2-fluorophenyl)-6,6a,7,8,9,10-hexahydro-12H-pyrazino[2,1-c]pyrido[3,4-f][1,4]oxazepin-12-one]	17.9	13
C=CC(=O)N1CCN2C(=O)c3c(N4C[C@H](N5CC(F)C5)CC4(C)C)nc(-c4ccccc4F)c(F)c3OC[C@H]2C1 [Z654-2, (R)-8-acryloyl-4-fluoro-1-((R)-4-(3-fluoroazetidin-1-yl)-2,2-dimethylpyrrolidin-1-yl)-3-(2-fluorophenyl)-6,6a,7,8,9,10-hexahydro-12H-pyrazino[2,1-c]pyrido[3,4-f][1,4]oxazepin-12-one]	168	167
C=CC(=O)N1CCN2C(=O)c3c(N4C[C@@H](O)CC4(C)C)nc(-c4c(N)cccc4F)c(F)c3OC[C@H]2C1 [Z481, (6aR)-8-acryloyl-3-(2-amino-6-fluorophenyl)-4-fluoro-1-((S)-4-hydroxy-2,2-dimethylpyrrolidin-1-yl)-6,6a,7,8,9,10-hexahydro-12H-pyrazino[2,1-c]pyrido[3,4-f][1,4]oxazepin-12-one]	42	13
C=CC(=O)N1CCN2C(=O)c3c(N4CCN(C)C[C@@H]4C)nc(-c4c(N)cccc4F)c(Cl)c3OC[C@H]2C1 [Z503, (6aR)-8-acryloyl-3-(2-amino-6-fluorophenyl)-4-chloro-1-((S)-2,4-dimethylpiperazin-1-yl)-6,6a,7,8,9,10-hexahydro-12H-pyrazino[2,1-c]pyrido[3,4-f][1,4]oxazepin-12-one]	176	42
C=CC(=O)N1CCN2C(=O)c3c(N4CC(N(C)C)CC4(C)C)nc(-c4ccccc4F)c(Cl)c3OC[C@H]2C1 (single isomer, unassigned) [Z453-2]	120	168
C=CC(=O)N1CCN2C(=O)c3c(N4C[C@H](N5CCN(C)CC5)CC4(C)C)nc(-c4ccccc4F)c(Cl)c3OC[C@H]2C1 (single isomer, unassigned) [Z454-2]	35.5	67
C=CC(=O)N1CCN2C(=O)c3c(N4CC(N(C)CCO)CC4(C)C)nc(-c4ccccc4F)c(Cl)c3OC[C@H]2C1 (stereo partly drawn) [Z658, (6aR)-8-acryloyl-4-chloro-3-(2-fluorophenyl)-1-(4-((2-hydroxyethyl)(methyl)amino)-2,2-dimethylpyrrolidin-1-yl)-6,6a,7,8,9,10-hexahydro-12H-pyrazino[2,1-c]pyrido[3,4-f][1,4]oxazepin-12-one]	28.4	24
C=CC(=O)N1CCN2C(=O)c3c(N4C[C@@H](O)CC4(C)C)nc(-c4ccccc4F)c(F)c3OC[C@H]2C1 (single isomer, unassigned) [Z408-1]	159	305
C=CC(=O)N1CCN2C(=O)c3c(N4C[C@H](N(C)CCO)CC4(C)C)nc(-c4ccccc4F)c(Cl)c3OC[C@H]2C1 (single isomer, unassigned) [Z658-2]	142	180
C=CC(=O)N1CCN2C(=O)c3c(N4C[C@@H](N5CC(OC)C5)CC4(C)C)nc(-c4ccccc4F)c(Cl)c3OC[C@H]2C1 [Z479-1, (R)-8-acryloyl-4-chloro-3-(2-fluorophenyl)-1-((S)-4-(3-methoxyazetidin-1-yl)-2,2-dimethylpyrrolidin-1-yl)-6,6a,7,8,9,10-hexahydro-12H-pyrazino[2,1-c]pyrido[3,4-f][1,4]oxazepin-12-one]	65.2	30
C=CC(=O)N1CCN2C(=O)c3c(N4C[C@@H](N5CC(C#N)C5)CC4(C)C)nc(-c4ccccc4F)c(Cl)c3OC[C@H]2C1 (single isomer, unassigned) [Z637-2]	23.8	68
C=CC(=O)N1CCN2C(=O)c3c(N4CCN(C)C[C@@H]4C)nc(-c4c(O)cccc4F)c(Cl)c3OC[C@H]2C1 [Z51, (6aR)-8-acryloyl-4-chloro-1-((S)-2,4-dimethylpiperazin-1-yl)-3-(2-fluoro-6-hydroxyphenyl)-6,6a,7,8,9,10-hexahydro-12H-pyrazino[2,1-c]pyrido[3,4-f][1,4]oxazepin-12-one]	142	73
C=CC(=O)N1CCN2C(=O)c3c(N4CC(N5CCN(C)CC5)CC4(C)C)nc(-c4c(O)cccc4F)c(Cl)c3OC[C@H]2C1 (stereo partly drawn) [Z467, (6aR)-8-acryloyl-4-chloro-1-(2,2-dimethyl-4-(4-methylpiperazin-1-yl)pyrrolidin-1-yl)-3-(2-fluoro-6-hydroxyphenyl)-6,6a,7,8,9,10-hexahydro-12H-pyrazino[2,1-c]pyrido[3,4-f][1,4]oxazepin-12-one]	7.7	11
C=CC(=O)N1CCN2C(=O)c3c(N4C[C@H](N5CCN(C)CC5)CC4(C)C)nc(-c4c(O)cccc4F)c(Cl)c3OC[C@H]2C1 (single isomer, unassigned) [Z469-2]	18	30
C=CC(=O)N1CCN2C(=O)c3c(N4CC(NC)CC4(C)C)nc(-c4ccccc4F)c(Cl)c3OC[C@H]2C1 (stereo partly drawn) [Z661, (6aR)-8-acryloyl-4-chloro-1-(2,2-dimethyl-4-(methylamino)pyrrolidin-1-yl)-3-(2-fluorophenyl)-6,6a,7,8,9,10-hexahydro-12H-pyrazino[2,1-c]pyrido[3,4-f][1,4]oxazepin-12-one]	32.9	29
C=CC(=O)N1CCN2C(=O)c3c(N4C[C@@H](N5CCN(C)CC5)CC4(C)C)nc(-c4c(F)cccc4Cl)c(Cl)c3OC[C@H]2C1 (single isomer, unassigned) [Z635-1]	22.7	14
C=CC(=O)N1CCN2C(=O)c3c(N4CC(N(C)CC(F)(F)F)CC4(C)C)nc(-c4ccccc4F)c(Cl)c3OC[C@H]2C1 (mixture of isomers) [Z491a, (6aR)-8-acryloyl-4-chloro-1-(2,2-dimethyl-4-(methyl(2,2,2-trifluoroethyl)amino)pyrrolidin-1-yl)-3-(2-fluorophenyl)-6,6a,7,8,9,10-hexahydro-12H-pyrazino[2,1-c]pyrido[3,4-f][1,4]oxazepin-12-one]	15	37
C=CC(=O)N1CCN2C(=O)c3c(N4C[C@@H](N(C)CC(F)F)CC4(C)C)nc(-c4ccccc4F)c(Cl)c3OC[C@H]2C1 (single isomer, unassigned) [Z659-1]	77.2	249
C=CC(=O)N1CCN2C(=O)c3c(N4CC(O)CC4(C)C)nc(-c4c(F)cccc4OC)c(F)c3OC[C@H]2C1 (single isomer, unassigned) [Z450]	147	141
